“And” between values parts separate entries of the source, which are not always exact repeats. Equal entries are not always repeated. Toxic doses and inconclusive results are not listed.
Tested on: P388 leukemia ip, CD2F1 mice, survival T/C
Experiment: NCI In Vivo Anticancer Drug Screen. Data for tumor model P388 Leukemia (intraperitoneal) in CD2F1 (CDF1) mice
Conditions: endpoint: median survival time, higher = longer survival
Outline: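 Mice carrying the transplanted tumor received test compound or vehicle. Survival was recorded in each group, and the value is the treated-group measurement divided by that of the vehicle-treated control group.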

[1] = dose: 25.0 mg/kg/injection, schedule: Q01DX005 (ip), vehicle: saline with Tween-80
[2] = dose: 50.0 mg/kg/injection, schedule: Q01DX005 (ip), vehicle: saline with Tween-80
[3] = dose: 100.0 mg/kg/injection, schedule: Q01DX005 (ip), vehicle: saline with Tween-80
[4] = dose: 50.0 mg/kg/injection, schedule: Q01DX009 (ip), vehicle: saline with Tween-80
[5] = dose: 100.0 mg/kg/injection, schedule: Q01DX009 (ip), vehicle: saline with Tween-80
[6] = dose: 200.0 mg/kg/injection, schedule: Q01DX009 (ip), vehicle: saline with Tween-80

In the case of `NC(=O)c1ccc2c3c(ccc(C(N)=O)c13)CC2`, the T/C (dose: 60.0 mg/kg/injection, schedule: Q01DX005 (ip), vehicle: Klucel (hydroxypropylcellulose) (HPC)) is reported as 102 % of control, the T/C (dose: 120.0 mg/kg/injection, schedule: Q01DX005 (ip), vehicle: Klucel (hydroxypropylcellulose) (HPC)) is reported as 109 % of control and the T/C (dose: 240.0 mg/kg/injection, schedule: Q01DX005 (ip), vehicle: Klucel (hydroxypropylcellulose) (HPC)) is reported as 109 % of control.

`O=C1OC(c2ccccc2)(c2ccccc2)c2cc3c(cc21)C(c1ccccc1)(c1ccccc1)OC3=O` was tested, and the T/C (dose: 100.0 mg/kg/injection, schedule: Q01DX001 (ip), vehicle: saline) was 93 % of control, the T/C (dose: 200.0 mg/kg/injection, schedule: Q01DX001 (ip), vehicle: saline) was 93 % of control and the T/C (dose: 400.0 mg/kg/injection, schedule: Q01DX001 (ip), vehicle: saline) was 92 % of control.

With `COc1ccc(C)cc1NC(=O)Sc1ccc(Cl)cc1` the T/C [1] was 110 % of control and 115 % of control, the T/C (dose: 50.0 mg/kg/injection, schedule: Q01DX005 (ip), vehicle: saline + Tween-80 + alcohol) was 117 % of control and the T/C [2] was 120 % of control and 123 % of control. The T/C (dose: 100.0 mg/kg/injection, schedule: Q01DX005 (ip), vehicle: saline + Tween-80 + alcohol) was 119 % of control, the T/C [3] was 122 % of control and the T/C (dose: 200.0 mg/kg/injection, schedule: Q01DX005 (ip), vehicle: saline with Tween-80) was 106 % of control.

`N#Cc1ccc(NN=NCCCCl)cc1` was tested, and the T/C (dose: 25.0 mg/kg/injection, schedule: Q01DX005 (ip), vehicle: distilled water + Tween-80) was 95 % of control, the T/C [1] was 100 % of control and the T/C (dose: 50.0 mg/kg/injection, schedule: Q01DX005 (ip), vehicle: distilled water + Tween-80) was 93 % of control. For the same compound, the T/C [2] was 100 % of control, the T/C (dose: 100.0 mg/kg/injection, schedule: Q01DX005 (ip), vehicle: distilled water + Tween-80) was 95 % of control and the T/C [3] was 121 % of control.

In the case of `Cc1noc(NS(=O)(=O)c2ccc(N=Nc3cc(N=Nc4ccc(S(=O)(=O)Nc5onc(C)c5C)cc4)c4c(NC(=O)C(Cl)Cl)cccc4c3O)cc2)c1C` (tested in a mixture with another compound), the T/C [2] is reported as 117 % of control and 118 % of control.

With `CCOC(=O)C1=C(C)NC(=O)NC1c1ccc([N+](=O)[O-])s1` (stereo not drawn) the T/C (dose: 50.0 mg/kg/injection, schedule: Q01DX005 (ip), vehicle: Klucel (hydroxypropylcellulose) (HPC)) was 87 % of control, the T/C (dose: 100.0 mg/kg/injection, schedule: Q01DX005 (ip), vehicle: Klucel (hydroxypropylcellulose) (HPC)) was 97 % of control and the T/C (dose: 200.0 mg/kg/injection, schedule: Q01DX005 (ip), vehicle: Klucel (hydroxypropylcellulose) (HPC)) was 91 % of control.

For `COc1cccc(OC)c1N`, the T/C [4] was 108 % of control, the T/C [5] was 108 % of control and the T/C [6] was 92 % of control. For the same compound, the T/C (dose: 400.0 mg/kg/injection, schedule: Q01DX009 (ip), vehicle: saline with Tween-80) was 90 % of control.

For `CCC[As](CCC)SC1OC(COC(C)=O)C(OC(C)=O)C(OC(C)=O)C1OC(C)=O` (stereo not drawn), the T/C [4] was 117 % of control and 88 % of control, the T/C [5] was 107 % of control and 92 % of control and the T/C [6] was 110 % of control and 124 % of control.

With `O=C1CCSC(=S)N1c1ccc(N=Nc2ccccc2)cc1` the T/C (dose: 50.0 mg/kg/injection, schedule: Q01DX009 (ip), vehicle: saline) was 105 % of control, the T/C (dose: 100.0 mg/kg/injection, schedule: Q01DX009 (ip), vehicle: saline) was 110 % of control and the T/C (dose: 200.0 mg/kg/injection, schedule: Q01DX009 (ip), vehicle: saline) was 110 % of control.

`CCCCSc1nn(CCC#N)c(=O)[nH]c1=O` was tested, and the T/C (dose: 25.0 mg/kg/injection, schedule: Q01DX005 (ip), vehicle: water) was 98 % of control, the T/C (dose: 50.0 mg/kg/injection, schedule: Q01DX005 (ip), vehicle: water) was 100 % of control and the T/C (dose: 100.0 mg/kg/injection, schedule: Q01DX005 (ip), vehicle: water) was 103 % of control. For the same compound, the T/C (dose: 200.0 mg/kg/injection, schedule: Q01DX005 (ip), vehicle: water) was 100 % of control.

For `O=C(O)C(/N=N\c1nn[nH]n1)/N=N\c1ncn[nH]1` (stereo not drawn), the T/C (dose: 100.0 mg/kg/injection, schedule: Q04DX003 (ip), vehicle: Klucel (hydroxypropylcellulose) (HPC)) was 102 % of control, the T/C (dose: 200.0 mg/kg/injection, schedule: Q04DX003 (ip), vehicle: Klucel (hydroxypropylcellulose) (HPC)) was 108 % of control and the T/C (dose: 400.0 mg/kg/injection, schedule: Q04DX003 (ip), vehicle: Klucel (hydroxypropylcellulose) (HPC)) was 101 % of control.

`CNC(=O)OCc1c(COC(=O)NC)c(-c2ccccc2)n2c1CCC2` was tested, and the T/C (dose: 50.0 mg/kg/injection, schedule: Q01DX009 (ip), vehicle: Klucel (hydroxypropylcellulose) (HPC)) was 124 % of control and the T/C (dose: 100.0 mg/kg/injection, schedule: Q01DX009 (ip), vehicle: Klucel (hydroxypropylcellulose) (HPC)) was 124 % of control.

In the case of `CCC(=O)OCc1c(-c2ccccc2)nc2sccn12`, the T/C (dose: 200.0 mg/kg/injection, schedule: Q01DX001 (ip), vehicle: Klucel (hydroxypropylcellulose) (HPC)) is reported as 103 % of control.

With `CCc1c(C)[nH]c2ccc(N)cc12` the T/C (dose: 25.0 mg/kg/injection, schedule: Q04DX003 (ip), vehicle: saline with Tween-80) was 99 % of control, the T/C (dose: 50.0 mg/kg/injection, schedule: Q04DX003 (ip), vehicle: saline with Tween-80) was 93 % of control and the T/C (dose: 100.0 mg/kg/injection, schedule: Q04DX003 (ip), vehicle: saline with Tween-80) was 93 % of control. The T/C (dose: 200.0 mg/kg/injection, schedule: Q04DX003 (ip), vehicle: saline with Tween-80) was 110 % of control.

In the case of `COc1cc2cnc(-c3ccncc3)c(N)c2cc1OC`, the T/C (dose: 100.0 mg/kg/injection, schedule: Q04DX003 (ip), vehicle: suspension in saline) is reported as 100 % of control, the T/C (dose: 200.0 mg/kg/injection, schedule: Q04DX003 (ip), vehicle: suspension in saline) is reported as 93 % of control and the T/C (dose: 400.0 mg/kg/injection, schedule: Q04DX003 (ip), vehicle: suspension in saline) is reported as 89 % of control.

With `[N-]=[N+]=CC(=O)CCC(N)C(=O)O` (stereo not drawn) the T/C (dose: 0.04 mg/kg/injection, schedule: Q01DX009 (ip), vehicle: saline) was 121 % of control, the T/C (dose: 0.05 mg/kg/injection, schedule: Q01DX009 (ip), vehicle: saline) was 158 % of control and the T/C (dose: 0.08 mg/kg/injection, schedule: Q01DX005 (ip), vehicle: saline) was 118 % of control. For the same compound, the T/C (dose: 0.08 mg/kg/injection, schedule: Q01DX005 (iv), vehicle: saline) was 109 % of control, the T/C (dose: 0.08 mg/kg/injection, schedule: Q01DX009 (ip), vehicle: saline) was 155 % of control and the T/C (dose: 0.1 mg/kg/injection, schedule: Q01DX009 (ip), vehicle: saline) was 178 % of control. For the same compound, the T/C (dose: 0.15 mg/kg/injection, schedule: Q01DX005 (ip), vehicle: saline) was 121 % of control, the T/C (dose: 0.15 mg/kg/injection, schedule: Q01DX005 (iv), vehicle: saline) was 110 % of control and the T/C (dose: 0.15 mg/kg/injection, schedule: Q01DX009 (ip), vehicle: saline) was 161 % of control and 171 % of control. For the same compound, the T/C (dose: 0.2 mg/kg/injection, schedule: Q01DX009 (ip), vehicle: saline) was 206 % of control, the T/C (dose: 0.3 mg/kg/injection, schedule: Q01DX005 (iv), vehicle: saline) was 112 % of control and the T/C (dose: 0.3 mg/kg/injection, schedule: Q01DX009 (ip), vehicle: saline) was 103 % of control and 105 % of control. For the same compound, the T/C (dose: 0.4 mg/kg/injection, schedule: Q01DX009 (ip), vehicle: saline) was 235 % of control, the T/C (dose: 0.6 mg/kg/injection, schedule: Q01DX005 (ip), vehicle: saline) was 153 % of control and the T/C (dose: 0.6 mg/kg/injection, schedule: Q01DX009 (ip), vehicle: saline) was 87 % of control. The T/C (dose: 0.8 mg/kg/injection, schedule: Q01DX009 (ip), vehicle: saline) was 94 % of control, the T/C (dose: 1.0 mg/kg/injection, schedule: Q04DX003 (ip), vehicle: saline) was 160 % of control and the T/C (dose: 2.0 mg/kg/injection, schedule: Q04DX003 (ip), vehicle: saline) was 158 % of control. For the same compound, the T/C (dose: 4.0 mg/kg/injection, schedule: Q04DX003 (ip), vehicle: saline) was 180 % of control, the T/C (dose: 8.0 mg/kg/injection, schedule: Q04DX003 (ip), vehicle: saline) was 202 % of control and the T/C (dose: 16.0 mg/kg/injection, schedule: Q04DX003 (ip), vehicle: saline) was 247 % of control. The T/C (dose: 54.0 micrograms/kg/injection, schedule: Q01DX009 (ip), vehicle: saline) was 151 % of control and 158 % of control, the T/C (dose: 62.5 micrograms/kg/injection, schedule: Q01DX009 (ip), vehicle: saline) was 160 % of control and the T/C (dose: 90.0 micrograms/kg/injection, schedule: Q01DX009 (ip), vehicle: saline) was 166 % of control and 182 % of control. The T/C (dose: 125.0 micrograms/kg/injection, schedule: Q01DX009 (ip), vehicle: saline) was 190 % of control, the T/C (dose: 150.0 micrograms/kg/injection, schedule: Q01DX009 (ip), vehicle: saline) was 188 % of control and 192 % of control and the T/C (dose: 250.0 micrograms/kg/injection, schedule: Q01DX009 (ip), vehicle: saline) was 109 % of control and 208 % of control and 236 % of control. For the same compound, the T/C (dose: 417.0 micrograms/kg/injection, schedule: Q01DX009 (ip), vehicle: saline) was 221 % of control and 90 % of control and the T/C (dose: 500.0 micrograms/kg/injection, schedule: Q01DX009 (ip), vehicle: saline) was 94 % of control.
